Results: patent US20240336640A1, “CALCIUM OXALATE CRYSTALLIZATION INHIBITORS FOR RENAL DISORDERS” (VIFOR (INTERNATIONAL) AG, priority 2018, published 2024)
Where a name gives a salt, the structure may show the parent alone.

experiment: CaOx crystallization inhibition assay in human urine, pH 6.2; conditions: human urine pH 6.2, 1 mM sodium oxalate, 7 h, light microscopy
Description: For comparison of the compounds' efficacy to inhibit calcium oxalate (CaOx) crystallization a simple in vitro assay in urine was used. In brief, human urine (pH 6.2) was mixed with compound, followed by the addition of 1 mM sodium oxalate inducing CaOx crystallization. After 7 hours of incubation at room temperature crystallization was measured by light microscopy, employing an automated image analysis to detect, classify and quantify the CaOx crystal types formed, namely CaOx monohydrate (COM) and CaOx dihydrate (COD).
Human urine was stored at −20° C. in 50 mL aliquots. After thawing, aliquots were centrifuged, filtered using a 0.45-μm syringe filter and pH set to 6.2. Oxalate concentrations of human urine samples were determined using the Oxalate Assay kit following the kit protocol, and found to be <100 μM for the samples used. Dilutions of sodium and compounds were prepared in Bis Tris buffer (50 mM, 150 mM NaCl, pH 6.2). Urine was mixed with compound in Eppendorf tubes, and subsequently sodium oxalate was added. The final assay mixture of 1 mL total volume contained 90% urine, 5% sodium oxalate (1 mM) and 5% compound dilution. Immediately upon sodium oxalate addition, the final assay mixture was vortexed and added to the imaging slide (8 well glass bottom chamber, ibidi). 400 μL per well were added and two wells for each sample were prepared. Crystallization was assessed after 7 h incubation at room temperature, using a Leica CTR6000 microscope (Leica Microsystems, Wetzlar, Germany) in brightfield mode. For visualization, images with a 40× objective were used. For quantification 2 wells/sample with five 20× objective images each were used. Without addition of sodium oxalate no crystallization was observed.
Quantification and classification of crystals was performed in Matlab (version R2016b or R2018b). In brief, crystals were segmented using edge detection and watershed algorithms and subsequently shape, intensity and texture features for each crystal were extracted. The extracted features served as input for a semi-supervised classification approach to distinguish COM (class 0), COD (class 1), not determined structures (class 2) and background noise (class 3). A cubic support vector machine (SVM) classifier was trained and subsequently used for classification of testing images.
All testing images were processed using the Batch Processing App. Efficacy of compounds to inhibit CaOx crystallization was compared by analysing the total area per field of view for each crystal type. The sum of the total area of the three crystal classes—COM, COD and unclassified, was normalized to the control within each experiment (N=3). Due to the inherent variability of the crystallization process itself, normalization within each experiment decreased the effect of inter-experimental variability.

Row | Structure (SMILES) | 50% complete inhibition (<50% total area) | COM inhibition (<5% of total area) | Complete inhibition (i.e <5% total area)
1 | O=P(O)(O)O[C@H]1[C@H](OP(=O)(O)O)[C@@H](OP(=O)(O)O)[C@H](OP(=O)(O)O)[C@@H](OP(=O)(O)O)[C@H]1OP(=O)(O)O [IP6, inositol hexaphosphate] | 30 µM | 3 µM | >30 µM
2 | COCCOCCOCCOCCOCCOCCOCCOCCOCCOCCOCCO[C@@H]1[C@@H](OP(=O)(O)O)[C@H](OP(=O)(O)O)[C@@H](OP(=O)(O)O)[C@@H](OP(=O)(O)O)[C@H]1OP(=O)(O)O [OEG11-IP5] | 11 µM | 100 µM | >100 µM
3 | COCCOCCO[C@@H]1C(OP(=O)(O)O)[C@H](OCCOCCOC)[C@@H](OP(=O)(O)O)C(OP(=O)(O)O)[C@H]1OP(=O)(O)O (stereo partly drawn) [(OEG2)2-IP4] | >100 µM | >100 µM | >100 µM
4 | O=C(O)CC(O)(CC(=O)O)C(=O)O [Citrate, Trisodium citrate dihydrate] | >100 µM | >100 µM | >100 µM
